Reference: patent US12122787B2, “Fused pyridone compound, and preparation method therefor and use thereof” (SHANGHAI JEMINCARE PHARMACEUTICALS CO., LTD, priority 2019, dated 2024)
Read-outs that look alike come from different tables or passages of the source.

Legend:
Type in all cases: cell-based
[1] = test system: MIA PaCa2 cells expressing KRAS-G12C; test: Growth inhibition of tumor cell line expressing KRAS-G12C (Cell Titer Glo), MIA PaCa2
Protocol: (§1) The ability of the compounds of the present disclosure to inhibit the growth of cells expressing KRAS-G12C was evaluated by measuring the cell viability and calculating the GI50 values.
(§2) The tumor cell line NCI-H358 (ATCC catalogue number CRL-5807) expressing KRAS-G12C was cultured in RPMI medium supplemented with 10% fetal bovine serum and penicillin/streptomycin, and the tumor cell line MIA PaCa2 (ATCC CRL-1420) expressing KRAS-G12C was cultured in DMEM medium supplemented with 10% fetal bovine serum, 2.5% horse serum, and penicillin/streptomycin.
(§3) Cells NCI-H358 and MIA-Paca2 were inoculated into black transparent bottom 384-well plate (PerkinElmer catalogue number 6007460) with cell density of 1000 and 800 respectively, and the cells were allowed to adhere to the wall overnight (8-12 hours). After the cells adhered to the wall, the experimental group was added with the compound of the present disclosure diluted 5 times the concentration of the working solution (final concentration containing 0.1% dimethyl sulfoxide, i.e. DMSO); the control group was added with the same dilution as the experimental group (final concentration containing 0.1% DMSO). After 72 hours, Cell Titer Glo reagent (Promega catalogue number G7572) was used to detect ATP content according to the instruction method to determine the amount of cell proliferation. The brief operation steps were as follows: the cell plate was taken out and kept at normal temperature for equilibrium for 30 minutes; Cell Titer Glo reagent with the same volume as the culture was added; the culture plate was placed on a shaker for shaking and cracking for 2 minutes; the culture plate was left to stand at room temperature for 10 minutes; then the light signal value was read by microplate reader EnVision (PerkinElmer).
(§4) Data from all experimental groups were used to calculate the respective percent inhibition using the DMSO group, and the GI50 was calculated using the data processing software GraphPad to analyze the inhibition rates produced by the 9 compound dose concentrations diluted at ⅓-fold ratio.

[2] = test system: NCI-H358 cells expressing KRAS-G12C; test: Growth inhibition of tumor cell line expressing KRAS-G12C (Cell Titer Glo), NCI-H358
Protocol: as §1, §2, §3, §4

[3] = test system: phosphorylated ERK (Thr202/Tyr204) in NCI-H358 cells expressing mutant RAS(G12C); test: Inhibition of RAS-mediated signal transduction: phosphorylated ERK ELISA in NCI-H358 cells
Protocol: The cells were treated with or without the compound of the present disclosure (dimethyl sulfoxide, DMSO), and the final concentration of DMSO was guaranteed to be 0.5%. After 2 hours of treatment, the medium was removed and 4% paraformaldehyde (Beyotime catalog number E672002-0100) was added and left to stand for 20 minutes. Cells were washed with PBS after fixation and incubated with precooled methanol for 10 min to permeabilize the cell membrane.
The level of phosphorylated ERK was detected using an enzyme linked immunosorbent assay (ELISA) method. […] The plates were washed 5 times with PBS containing 0.05% Tween 20. […] The reaction was stopped by adding 1 mol/L H2SO4, and the OD value was read at 450 nm by EnVision (PerkinElmer).
The total number of cells per well was detected by Janus Green B staining method. After detecting the level of phosphorylated ERK, the 96-well plate was washed with PBS until colorless, and 0.1% Janus Green B (Abcam catalogue number ab111622) was added to incubate for 10 minutes. After the 96-well plate was washed with double distilled water, 0.1 mol/L HCl was added, then the mixture was shaked and incubated for 10 minutes. The OD value was read at 595 nm by EnVision (PerkinElmer).
The signal of pERK (Thr202/Tyr204) was normalized by the signal value of Janus Green B, and the inhibition percentage after drug treatment relative to DMSO reference was calculated. The percentage values were fitted by a four-parameter dose-response curve and generated IC50 values.

[4] = Homo sapiens, MIA PaCa-2, 72 h, MIA-Paca2, 72 hours
[5] = NCI-H358 cells, 2 hours of treatment, pERK normalized by Janus Green B, read-out: p-ERK IC50 (NCI H358)
[6] = Homo sapiens, NCI-H358, 2 h, NCI-H358 cells, 2 hours of treatment, pERK normalized by Janus Green B, read-out: p-ERK IC50 (NCI H358)

SMILES | GI50 [1, 4] [nM] | GI50 ([2]; Homo sapiens, NCI-H358, 72 h) [nM] | IC50 [3, 5] [µM] | GI50 ([1]; MIA-Paca2, 72 hours) [nM] | GI50 ([2]; NCI-H358, 72 hours) [nM] | further results
C=CC(=O)N1C[C@@H]2CN(C)c3c(c4cc(F)c(-c5c(O)cccc5F)c(F)c4n(-c4c(C)ccnc4C(C)C)c3=O)N2C[C@H]1C (atropisomer, axis not shown) [Compound 16A-1] | 55 | 12 | 0.011 |  |  | 
C=CC(=O)N1C[C@@H]2COc3c(c4cc(Cl)c(-c5c(O)cccc5F)c(F)c4n(-c4c(C)ccnc4C(C)C)c3=O)N2C[C@H]1C (atropisomer, axis not shown) [Compound 18A-2] |  |  | 0.013 | 24 | 12 | 
C=CC(=O)N1C[C@@H]2COc3c(c4cc(Cl)c(-c5c(O)cccc5F)c(F)c4n(-c4c(C)ccnc4C(C)C)c3=O)N2C[C@H]1C (atropisomer, axis not shown) [Compound 18B] |  |  | 0.151 | 468 | 138 | 
C=CC(=O)N1C[C@@H]2C(=O)N(CCN(C)C)c3c(c4cc(Cl)c(-c5c(O)cccc5F)c(F)c4n(-c4c(C)ccnc4C(C)C)c3=O)N2C[C@H]1C (atropisomer, axis not shown) [Compound 26A] | 724 | 152 |  |  |  | IC50 [3, 6]: 0.203 µM
C=CC(=O)N1C[C@@H]2C(=O)N(CCN(C)C)c3c(c4cc(Cl)c(-c5c(O)cccc5F)c(F)c4n(-c4c(C)ccnc4C(C)C)c3=O)N2C[C@H]1C (atropisomer, axis not shown) [Compound 26B] |  |  | 0.019 | 28 | 22 | 
C=CC(=O)N1C[C@@H]2C(=O)N(CCN(C)C)c3c(c4cc(Cl)c(-c5c(O)cccc5F)c(F)c4n(-c4c(C)ccnc4C(C)C)c3=O)N2C[C@H]1C (atropisomer, axis not shown) [Compound 26D] |  |  | 0.068 | 79 | 82 | 
C=CC(=O)N1C[C@@H]2C(=O)N(CCN(C)C)c3c(c4cc(Cl)c(-c5c(F)cccc5OC)c(F)c4n(-c4c(C)ccnc4C(C)C)c3=O)N2C[C@H]1C (atropisomer, axis not shown) [Compound 27A] | 152 | 147 |  |  |  | IC50 [3, 6]: 0.087 µM
C=CC(=O)N1C[C@@H]2C(=O)N(CCN(C)C)c3c(c4cc(Cl)c(-c5c(F)cccc5OC)c(F)c4n(-c4c(C)ccnc4C(C)C)c3=O)N2C[C@H]1C (atropisomer, axis not shown) [Compound 27D] |  |  | 0.124 | 117 | 85 | 
C=CC(=O)N1C[C@@H]2CN(CCCO)c3c(c4cc(F)c(-c5c(O)cccc5F)c(F)c4n(-c4c(C)ccnc4C(C)C)c3=O)N2C[C@H]1C (atropisomer, axis not shown) [Compound 35A-1] |  |  | 0.313 | 2600 | 163 | 
C=CC(=O)N1C[C@@H]2C(=O)N(C)c3c(c4cc(Cl)c(-c5c(O)cccc5F)c(F)c4n(-c4c(C)ncnc4C(C)C)c3=O)N2C[C@H]1C (atropisomer, axis not shown) [Compound 49A-1] |  |  | 0.005 | 7 | 3 | 
C=CC(=O)N1C[C@@H]2C(=O)N(CCN(C)C)c3c(c4cc(Cl)c(-c5c(O)cccc5F)c(F)c4n(-c4c(CC)ccnc4C(C)C)c3=O)N2C[C@H]1C (atropisomer, axis not shown) [Compound 54B-1] | 6 | 7 | 0.012 |  |  | 
C=CC(=O)N1C[C@@H]2COc3c(c4cc(F)c(-c5c(O)cccc5F)nc4n(-c4c(C)ccnc4C(C)C)c3=O)N2C[C@H]1C (single isomer, unassigned) [Compound 5A] |  |  | 0.061 | 252 | 89 | 
C=CC(=O)N1C[C@@H]2COc3c(c4cc(F)c(-c5c(O)cccc5F)nc4n(-c4c(C)ccnc4C(C)C)c3=O)N2C[C@H]1C (single isomer, unassigned) [Compound 5B] |  |  | 0.128 | 3130 | 210 | 
C=CC(=O)N1C[C@@H]2COc3c(c4cc(F)c(-c5c(F)cccc5OC)nc4n(-c4c(C)ccnc4C(C)C)c3=O)N2C[C@H]1C (single isomer, unassigned) [Compound 6A] | 230 | 41 | 0.065 |  |  | 
C=CC(=O)N1C[C@@H]2COc3c(c4cc(F)c(-c5c(C)ccc6[nH]ncc56)nc4n(-c4ccccc4C(C)C)c3=O)N2C[C@H]1C (single isomer, unassigned) [Compound 13A] | 265 | 59 | 0.04 |  |  | 
C=CC(=O)N1C[C@@H]2CN(C)c3c(c4cc(F)c(-c5c(O)cccc5F)c(F)c4n(-c4c(C)ccnc4C(C)C)c3=O)N2C[C@H]1C (single isomer, unassigned) [Compound 16A-2] |  |  | 0.084 | 146 | 74 | 
C=CC(=O)N1C[C@@H]2CN(C)c3c(c4cc(F)c(-c5c(O)cccc5F)c(F)c4n(-c4c(C)ccnc4C(C)C)c3=O)N2C[C@H]1C (single isomer, unassigned) [Compound 16A] | 211 | 20 | 0.017 |  |  | 
C=CC(=O)N1CC2COc3c(c4cc(Cl)c(-c5c(O)cccc5F)c(F)c4n(-c4c(C)ccnc4C(C)C)c3=O)N2CC1C (single isomer, unassigned) [Compound 18B-2] |  |  | 0.102 | 172 | 149 | 
C=CC(=O)N1CC2C(=O)Nc3c(c4cc(F)c(-c5c(O)cccc5F)c(F)c4n(-c4c(C)ccnc4C(C)C)c3=O)N2CC1C (single isomer, unassigned) [Compound 22A-2] |  |  | 0.054 | 119 | 42 | 
C=CC(=O)N1C[C@@H]2C(=O)N(CCN(C)C)c3c(c4cc(Cl)c(-c5c(O)cccc5F)c(F)c4n(-c4c(C)ccnc4C(C)C)c3=O)N2C[C@H]1C (single isomer, unassigned) [Compound 26C] |  |  | 0.002 | 1 | 2 | 
C=CC(=O)N1C[C@@H]2C(=O)N(C)c3c(c4cc(Cl)c(-c5ccc(F)c6nc(N)sc56)nc4n(-c4c(C)ccnc4C(C)C)c3=O)N2C[C@H]1C (single isomer, unassigned) [Compound 56A] |  |  | 0.183 | 448 | 223 | 
C=CC(=O)N1C[C@@H]2C(=O)N(C)c3c(c4cc(Cl)c(-c5ccc(F)c6nc(N)sc56)nc4n(-c4c(C)ccnc4C(C)C)c3=O)N2C[C@H]1C (single isomer, unassigned) [Compound 56B] |  |  | 0.011 | 25 | 12 | 
C=CC(=O)N1CCN(c2ncnc3c(F)c(-c4c(O)cccc4F)c(Cl)cc23)CC1 [ARS-1620] |  |  |  |  |  | GI50 ([1]; Homo sapiens, MIA PaCa-2, MIA-Paca2, 72 hours): 1210 nM; GI50 ([2]; Homo sapiens, NCI-H358, 72 hours): 510 nM; IC50 ([3]; Homo sapiens, NCI-H358, 2 h, read-out: p-ERK IC50 (NCI H358, μM)): 0.325 µM
C=CC(=O)N1C[C@@H]2COc3c(c4cc(F)c(-c5c(O)cccc5F)nc4n(-c4ccccc4C(C)C)c3=O)N2C[C@H]1C [Compound 2A] | 1020 | 143 |  |  |  | IC50 [3, 6]: 0.066 µM
C=CC(=O)N1C[C@@H]2COc3c(c4cc(F)c(-c5c(O)cccc5F)c(F)c4n(-c4c(C)ccnc4C(C)C)c3=O)N2C[C@H]1C [Compound 3B] |  |  | 0.008 | 39 | 8 | 
C=CC(=O)N1C[C@@H]2COc3c(c4cc(Cl)c(-c5c(O)cccc5F)c(F)c4n(C)c3=O)N2C[C@H]1C [Compound 4A] | 2400 | 523 |  |  |  | IC50 [3, 6]: 0.159 µM
C=CC(=O)N1C[C@@H]2CN(C)c3c(c4cc(Cl)c(-c5c(O)cccc5F)nc4n(-c4c(C)ccnc4C(C)C)c3=O)N2C[C@H]1C [Compound 8] | 37 | 22 |  |  |  | IC50 [3, 6]: 0.024 µM
